Assay results published in patent US20120142645A1, “NEUROACTIVE STEROID COMPOSITIONS AND METHODS OF USE FOR LOWERING CHOLESTEROL” (priority 2009, published 2012).

Tested on: patients with schizophrenia or schizoaffective disorder
Test: SANS negative symptoms; randomized placebo-controlled 8-week trial of adjunctive pregnenolone (100, 300, then 500 mg/day oral)
Assay type: in vivo, human
Conditions: for SANS Total, change: text prints it as positive mean change (improvement); for SANS Total, difference PG vs placebo: points; for SANS Affect subscale score / SANS Alogia subscale score / SANS Anhedonia/asociality subscale score / SANS Attention subscale score / SANS Avolition/apathy subscale score / SANS Total score: mean ± SD, n = 8
Procedure: Study Design and Subjects. Disclosed herein is a placebo-controlled, double-blind, parallel group, randomized trial of adjunctive pregnenolone for the treatment of cognitive and negative symptoms in patients with schizophrenia or schizoaffective disorder. […] Patients received a total of 6 study visits, which took place every two weeks. […] The trial was conducted at a single site, the Durham Veterans Affairs Medical Center in Durham, N.C. The protocol was approved by the local institutional review board and conducted under FDA Investigational New Drug (IND) #71,768. The ClinicalTrials.gov number for this study is NCT00560937.
Subjects were outpatients between the ages of 18 and 65 with schizophrenia or schizoaffective disorder diagnosed by DSM-IV/DSM-IV-TR criteria utilizing the Structured Clinical Interview (First et al., 1996) and medical records. All subjects were between the ages of 18-65 and provided informed consent. Duration of illness was greater than one year for all enrolled patients. To be eligible for the trial, patients had to be taking a second-generation antipsychotic (aripiprazole, olanzapine, quetiapine, or risperidone) for at least 8 weeks, with no changes in antipsychotic dosing in the preceding 4 weeks. Patients receiving first-generation antipsychotics were excluded. Concomitant psychiatric medications were permissible (antidepressants, mood stabilizers, anticholinergics, other), provided that patients were receiving stable doses of all of these medications in the 4 weeks preceding the trial and throughout the entire duration of the study. Any change in psychiatric medications at any point during the study rendered a patient ineligible to continue participation.
During the screening visit (Visit 1), patients received a physical exam, vital signs, and electrocardiogram (EKG), as well as baseline laboratory measures consisting of serum electrolytes, glucose, creatinine, blood urea nitrogen (chemistry 7 panel), liver function tests, complete blood count (CBC), urinalysis, urine toxicology test, thyroid stimulating hormone (TSH), and prolactin, and serum pregnancy test if female. These tests were also repeated at the completion of the study (Visit 6). In addition, patients received an interim EKG 4 weeks post-randomization, as well as a serum pregnancy test if female (Visit 4). Patients also received a chemistry 7 panel, CBC, and liver function tests at Visits 2, 3, 4, and 5 (i.e., at all study visits). Psychiatric symptoms were assessed at baseline using the Scale for the Assessment of Negative Symptoms (Andreasen, 1983), the Positive and Negative Symptom Scale (PANSS; Kay et al., 1987), the Calgary Depression Rating Scale (CDRS; Addington et al., 1990), the Clinical Global Impressions Improvement (CGI-I) and Severity (CGI-S) scales, the Barnes Akathisia Scale (BAS; Barnes, 1989), the Simpson Angus Scale for Extrapyramidal Symptoms (SAS; Simpson & Angus, 1970), the Quality of Life Scale (QOL; Heinrichs et al., 1984), and the Hillside Side Effects Scale. One research nurse with five years of experience in the conduction of schizophrenia clinical trials completed both psychiatric and cognitive assessments throughout the study, and was trained to one point of divergence on each PANSS item.

[1] = Difference in change from Week 0 to Week 8

Compound: CC(=O)[C@H]1CC[C@H]2[C@@H]3CC=C4C[C@@H](O)CC[C@]4(C)[C@H]3CC[C@]12C [PG, pregnenolone]
- SANS Affect subscale, change (Change from Week 0 to Week 8): −4.3 ± 1.7
- SANS Alogia subscale, change (Change from Week 0 to Week 8): −1.9 ± 0.8
- SANS Anhedonia/asociality subscale, change (Change from Week 0 to Week 8): −2.4 ± 1.3
- SANS Attention subscale, change (Change from Week 0 to Week 8): −1.6 ± 0.4
- SANS Avolition/apathy subscale, change (Change from Week 0 to Week 8): −0.3 ± 0.3
- SANS Total, change (Change from Week 0 to Week 8): −10.4 ± 10.2
- SANS Total, change (Change from Week 0 to Week 8, listed as pregnenolone): 10.38±10.18
- SANS Affect subscale, difference PG vs placebo [1]: −4.5 ± 1.9
- SANS Alogia subscale, difference PG vs placebo [1]: −1.5 ± 0.8
- SANS Anhedonia/asociality subscale, difference PG vs placebo [1]: −1.6 ± 1.3
- SANS Attention subscale, difference PG vs placebo [1]: −0.5 ± 0.5
- SANS Avolition/apathy subscale, difference PG vs placebo [1]: 0.1 ± 0.6
- SANS Total, difference PG vs placebo [1]: −8.0 ± 3.7
- SANS Total, difference PG vs placebo (Difference in change from Week 0 to Week 8, listed as Pregnenolone): approximately 8
- SANS Affect subscale score (Week 0 (baseline)): 13.4 ± 5.0
- SANS Alogia subscale score (Week 0 (baseline)): 8.8 ± 3.6
- SANS Anhedonia/asociality subscale score (Week 0 (baseline)): 12.0 ± 4.5
- SANS Attention subscale score (Week 0 (baseline)): 5.6 ± 1.1
- SANS Avolition/apathy subscale score (Week 0 (baseline)): 8.3 ± 2.5
- SANS Total score (Week 0 (baseline)): 50.8 ± 12.2
- SANS Total score (Week 0 (baseline), listed as pregnenolone): 47.56±12.09
- SANS Affect subscale score (Week 4): 14.3 ± 3.2
- SANS Alogia subscale score (Week 4): 7.8 ± 3.2
- SANS Anhedonia/asociality subscale score (Week 4): 10.4 ± 4.1
- SANS Attention subscale score (Week 4): 5.3 ± 1.0
- SANS Avolition/apathy subscale score (Week 4): 8.1 ± 1.0
- SANS Total score (Week 4): 45.8 ± 8.8
- SANS Affect subscale score (Week 8): 11.9 ± 0.4
- SANS Alogia subscale score (Week 8): 6.9 ± 2.1
- SANS Anhedonia/asociality subscale score (Week 8): 9.6 ± 3.5
- SANS Attention subscale score (Week 8): 4.0 ± 0
- SANS Avolition/apathy subscale score (Week 8): 8.0 ± 0.5
- SANS Total score (Week 8): 40.4 ± 3.5
